Test results from PMC6804824, “Volatile composition and classification of Lilium flower aroma types and identification, polymorphisms, and alternative splicing of their monoterpene synthase genes” (Horticulture Research, 2019).
Positions count from the first letter of the chain named.

Assays:
Test in all cases: GC-MS product analysis (SPME)
Assay type in all cases: biochemical
Details in all cases: 30 uM GPP, 10 mM MgCl2, pH 7.2, 30 C, 3 h; products (E)-beta-ocimene, alpha-pinene, limonene; results call protein purified, methods use sonicated cells
LrlTPS-3 = target: T1, LrlTPS-3 (Lilium hybrid cultivar, UniProt A0A6M2RDN4)
T1 construct: full length, 548 aa (ORF 1647 bp), plastid transit peptide intact; pTYB12 fusion vector; E. coli BL21(DE3); about 62 kDa
T1 sequence (A0A6M2RDN4 1-548): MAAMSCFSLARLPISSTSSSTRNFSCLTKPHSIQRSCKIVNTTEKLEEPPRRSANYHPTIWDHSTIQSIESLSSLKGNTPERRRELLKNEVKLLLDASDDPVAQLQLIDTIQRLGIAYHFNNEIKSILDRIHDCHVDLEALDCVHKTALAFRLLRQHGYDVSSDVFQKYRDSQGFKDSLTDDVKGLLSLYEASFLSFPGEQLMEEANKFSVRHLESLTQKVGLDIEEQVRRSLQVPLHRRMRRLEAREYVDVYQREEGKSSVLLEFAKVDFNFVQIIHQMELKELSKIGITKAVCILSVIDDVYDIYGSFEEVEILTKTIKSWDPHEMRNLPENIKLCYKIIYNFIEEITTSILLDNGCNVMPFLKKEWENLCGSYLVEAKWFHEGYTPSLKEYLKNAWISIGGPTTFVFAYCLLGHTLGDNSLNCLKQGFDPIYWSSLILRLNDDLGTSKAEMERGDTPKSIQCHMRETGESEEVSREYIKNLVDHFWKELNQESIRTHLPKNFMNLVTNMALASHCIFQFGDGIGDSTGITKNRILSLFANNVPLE

LsoTPS-1 / LrlTPS-1 = target: T2, LsoTPS-1 / LrlTPS-1 (Lilium hybrid cultivar, UniProt A0A6M2RDI7)
T2 construct: full length, 586 aa (ORF 1761 bp), plastid transit peptide intact; pTYB12 fusion vector; E. coli BL21(DE3); about 67 kDa
T2 sequence (A0A6M2RDI7 1-586): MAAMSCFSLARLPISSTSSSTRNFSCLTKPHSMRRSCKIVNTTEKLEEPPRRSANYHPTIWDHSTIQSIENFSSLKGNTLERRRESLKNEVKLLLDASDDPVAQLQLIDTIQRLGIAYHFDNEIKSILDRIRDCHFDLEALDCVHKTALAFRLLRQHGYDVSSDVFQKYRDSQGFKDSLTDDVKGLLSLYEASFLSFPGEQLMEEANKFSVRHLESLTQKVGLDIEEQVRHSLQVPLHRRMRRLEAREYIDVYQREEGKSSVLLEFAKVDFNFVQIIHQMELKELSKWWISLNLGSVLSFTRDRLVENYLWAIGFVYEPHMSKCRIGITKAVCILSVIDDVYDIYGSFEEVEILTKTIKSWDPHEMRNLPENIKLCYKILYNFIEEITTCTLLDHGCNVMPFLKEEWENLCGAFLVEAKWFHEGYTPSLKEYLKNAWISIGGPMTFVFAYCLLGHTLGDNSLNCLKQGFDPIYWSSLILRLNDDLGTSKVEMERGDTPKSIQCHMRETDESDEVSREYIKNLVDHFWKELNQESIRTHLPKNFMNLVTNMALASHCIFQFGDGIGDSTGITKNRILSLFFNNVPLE

LsoTPS-3 = target: T3, LsoTPS-3 (Lilium hybrid cultivar, UniProt A0A6M2RCV8)
T3 construct: full length, 548 aa (ORF 1647 bp), plastid transit peptide intact; pTYB12 fusion vector; E. coli BL21(DE3); about 62 kDa
T3 sequence (A0A6M2RCV8 1-548): T1 sequence (A0A6M2RDN4 1-548) with P80L, R231H

LsoTPS-2 = target: T4, LsoTPS-2 (Lilium hybrid cultivar, UniProt A0A2H4R3S6)
T4 construct: gene TPS; full length, 590 aa (ORF 1773 bp), plastid transit peptide intact; pTYB12 fusion vector; E. coli BL21(DE3); about 68 kDa
T4 sequence (A0A2H4R3S6 1-590): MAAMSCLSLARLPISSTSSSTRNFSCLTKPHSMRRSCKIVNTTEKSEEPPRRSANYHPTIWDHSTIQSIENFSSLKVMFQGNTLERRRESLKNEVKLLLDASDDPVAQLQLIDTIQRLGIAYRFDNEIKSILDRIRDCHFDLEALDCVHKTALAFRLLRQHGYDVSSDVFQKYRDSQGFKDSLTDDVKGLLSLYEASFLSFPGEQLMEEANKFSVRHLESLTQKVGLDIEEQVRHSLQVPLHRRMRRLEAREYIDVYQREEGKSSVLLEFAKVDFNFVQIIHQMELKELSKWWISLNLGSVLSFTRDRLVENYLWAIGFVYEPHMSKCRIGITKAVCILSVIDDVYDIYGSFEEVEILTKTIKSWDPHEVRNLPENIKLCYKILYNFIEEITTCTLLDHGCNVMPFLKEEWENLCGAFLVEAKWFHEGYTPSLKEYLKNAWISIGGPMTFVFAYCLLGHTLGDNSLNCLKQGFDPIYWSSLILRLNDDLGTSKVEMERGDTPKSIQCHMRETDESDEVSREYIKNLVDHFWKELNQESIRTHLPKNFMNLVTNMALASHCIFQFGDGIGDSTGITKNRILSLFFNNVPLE

## CC(C)=CCC/C(C)=C/COP(=O)(O)OP(=O)(O)O [GPP]
LrlTPS-3
  GC-MS product analysis (SPME): all five proteins were able to convert GPP into (E)-β-ocimene, α-pinene, and limonene
LsoTPS-1 / LrlTPS-1
  GC-MS product analysis (SPME): all five proteins were able to convert GPP into (E)-β-ocimene, α-pinene, and limonene
LsoTPS-3
  GC-MS product analysis (SPME): all five proteins were able to convert GPP into (E)-β-ocimene, α-pinene, and limonene
LsoTPS-2
  GC-MS product analysis (SPME): all five proteins were able to convert GPP into (E)-β-ocimene, α-pinene, and limonene
